# Data reported in US5246949A, “Preparation for endermism containing dopamine derivatives” (Sansho Co., Ltd., priority 1989, dated 1993).
# Where a name gives a salt, the structure may show the parent alone. Read-outs that look alike come from different tables or passages of the source.
# How the values were obtained:
# [1] = oral or percutaneous; cited from earlier work
# [2] = in vitro skin permeability test (horizontal membrane type in vitro diffusion cell, HPLC determination); details: for skin permeability on adding a higher alcohol: Test Examples 5 to 8, FIGS. 5 to 8, 10% by weight; for skin permeability on adding a lactic acid ester: Test Example 1, FIG. 1
# Protocol: 100 mg of each dopamine derivative hydrochloride as shown in Table 1 was weighed and 900 mg of propylene glycol was added thereto to obtain a solution or suspension containing 10% by weight of each dopamine derivative hydrochloride. These solutions and suspensions were referred to as comparative samples a to e, respectively.
# Then 50 mg (in the cases of invention samples A to D) or 100 mg (in the cases of invention samples E to H) of each lactic acid ester or fatty acid monoglyceride as shown in Table 1 was added thereto. Further, propylene glycol was added to make the total amount 1000 mg. Thus, a solution or suspension containing 10% by weight of each dopamine derivative hydrochloride was obtained. These solutions and suspensions were referred to as invention samples A to H.
# 100 mg of each dopamine derivative hydrochloride as shown in Table 2 was weighed and 900 mg of polyethylene glycol 400 was added thereto. Thus a solution or suspension containing 10% by weight of each dopamine derivative hydrochloride was obtained. These solutions and suspensions were referred to as comparative samples f to i respectively.
# Further polyethylene […] was added thereto to make the total amount 1000 mg. Thus, a solution or suspension containing 10% by weight of each dopamine derivative hydrochloride was prepared. These solutions and suspensions were referred to as invention samples I to N, respectively.
# The abdominal hair of a male Wister rat, weighing 170 to 200 g and 7 weeks of age, was removed under anesthesia. […] Next, the whole abdominal skin was cleansed with 70% ethanol and then peeled off under anesthesia.
# The peeled skin was fixed on the lid of a horizontal membrane type in vitro diffusion cell (penetration area: 7.54 cm^2) in such a manner that the epidermis served as the donor face. As a receiver solution, 50 ml of physiological saline solution or a 30% aqueous solutioh of polyethylene glycol 400 was employed. On the donor side, 0.5 g of a solution of each sample was applied by adding dropwise. Then the lid was fixed in a receptor while paying attention so no bubbles remained in the derm side, followed by storing it in an incubator maintained at 32° C. The receptor solution was stirred with a stirrer and 0.5 ml portions thereof were collected with the lapse of time so as to determine the dopamine derivative contained therein. The determination was effected by high performance liquid chromatography. (iii) Test Results
# [3] = oral drug; E. Lodola et al. 1986; cited from earlier work
# [4] = SOL I. Rajifer et al. 1986; cited from earlier work
# [5] = 5% aqueous solution of glyceryl monocaprylate; Okumura et al. 1989; cited from earlier work
# [6] = cited from earlier work
# [7] = Test Examples 2 to 4, FIGS. 2 to 4, 10% by weight in propylene glycol, 32° C.
# [8] = 10% by weight in propylene glycol, 32° C.
smiles,measurement,setting,value
CC(CCc1ccc(O)cc1)NCCc1ccc(O)c(O)c1 (centres unmarked) [dobutamine],absorption when administered orally or percutaneously,[1],scarcely absorbed
"Cl.NCCc1ccc(OC(=O)c2cccnc2)c(OC(=O)c2cccnc2)c1 [3,4-di-O-nicotinoyldopamine hydrochloride]",skin permeability on adding a lactic acid ester or a fatty acid monoglyceride,[2]; [7],extremely elevated
same,skin permeability on adding a higher alcohol,[2]; 32° C.,extremely elevated
"CC(C)C(=O)Oc1ccc(CCN)cc1OC(=O)C(C)C.Cl [3,4-di-O-isobutyryldopamine hydrochloride]",skin permeability on adding a lactic acid ester,[2]; [8],extremely elevated
same,skin permeability on adding a higher alcohol,[2]; 32° C.,extremely elevated
CNCCc1ccc(OC(=O)C(C)C)c(OC(=O)C(C)C)c1 [ibopamine],half-life in plasma,[3],1.54 h
same,duration of the effect on improvement of the circulation (cardiac coefficient),[4],3 to 6 h
"CCCC(=O)Oc1ccc(CCN)cc1OC(=O)CCC [3,4-di-O-n-butyryldopamine hydrochloride]",decomposition after penetrating into the skin,[2],considerably decomposed
same,skin permeability on adding a lactic acid ester or a fatty acid monoglyceride,[2],extremely elevated
Cl.NCCc1ccc(O)c(O)c1 [dopamine hydrochloride],percutaneous penetration rate relative to dopamine hydrochloride alone,[5],34 times
same,skin damage,[6]; if percutaneously absorbed,causes skin damage
same,irritation to the skin,[6]; percutaneous,highly irritative to the skin
NCCc1ccc(O)c(O)c1 [Dopamine],absorption when administered orally or percutaneously,[1],scarcely absorbed
"CNCCc1ccc(OC(=O)C(C)C)c(OC(=O)C(C)C)c1 [3,4-di-O-isobutyrylepinine hydrochloride]",skin permeability on adding a lactic acid ester or a fatty acid monoglyceride,[2]; [7],extremely elevated
same,skin permeability on adding a higher alcohol,[2]; 32° C.,extremely elevated
"CC(C)(C)C(=O)Oc1ccc(CCN)cc1OC(=O)C(C)(C)C.Cl [3,4-di-O-pivaloyldopamine hydrochloride]",skin permeability on adding a lactic acid ester,[2]; [8],extremely elevated
same,skin permeability on adding a higher alcohol,[2]; 32° C.,extremely elevated
